Measured values published in US20130072459A1, “PHARMACEUTICAL COMPOSITION FOR THE PREVENTION OR THE TREATMENT OF NON-ALCOHOLIC FATTY LIVER DISEASE AND THE METHOD FOR PREVENTION OR TREATMENT OF NON-ALCOHOLIC FATTY LIVER DISEASE USING THE SAME” (priority 2010, published 2013).

Experiments:
[1] = test system: ob/ob mice; test: Plasma alanine aminotransferase in obesity animal model ob/ob mice; assay type: in vivo; conditions: 4 weeks; for plasma alanine aminotransferase, result in words: ob/ob mice
Method: 5-week old male C57BL/6 mice (normal mouse group) and ob/ob mice (obesity mouse group) were stabilized and then divided into 6 groups according to the body weight and blood glucose level, followed by feeding with a standard diet and a drug-mixed diet. […] Therefore, in order to supply 10, 100 and 300 mg/kg which are daily target doses of tartrate of Compound 1, diets were formulated by mixing a standard diet with 0.01% by weight, 0.1% by weight and 0.3% by weight of tartrate of Compound 1 and 0.3% by weight of sitagliptin phosphate, respectively. 4 weeks after a supply of diets, animals were dissected and sera were separated. Plasma alanine aminotransferase levels were measured using a blood analyzer (Table 6).

[2] = test system: TGF-β1; test: TGF-β1 mRNA expression in liver, CCl4-induced acute hepatic damage mouse model; assay type: in vivo, C57BL/6 mice; conditions: for TGF-β1 expression inhibition rate (% CCl4 control group) / TGF-β1 expression (normalized by actin): 3 days; for TGF-β1 expression (normalized by actin): CCl4 0.1 ml/kg i.p.; for maximum decrement in TGF-β1 mRNA expression of the liver relative to the CCl4 control group: maximum over the doses tested; for expression of TGF-β1 mRNA of the liver, result in words: vs CCl4 group
Method: In order to investigate inhibitory effects of compounds of the present invention on expression of TGF-β1 which is known to play a crucial role in a fibrosis process of hepatocytes in a CCl4-induced acute hepatic damage mouse model, the following experiment was carried out. 7-week old male C57BL/6 mice were stabilized and divided into 9 groups (n=7) according to the body weight, followed by intraperitoneal administration of CCl4 (0.1 ml/kg). The normal control group was administered an olive oil. The control group was orally administered a vehicle solution (0.5% MC) once a day at a dose of 10 ml/kg, at intervals of 24 hours for 3 days. The remaining groups were orally administered once a day tartrate of Compound 1 at doses of 30, 100 and 300 mg/kg, sitagliptin phosphate (prepared according to the method described in WO2004/085378 or WO2005/003135) at doses of 100 and 300 mg/kg, and vildagliptin (Trademax, China) at doses of 100 and 300 mg/kg, respectively, according to the designated groups. 1 hour after the final oral administration, animals were dissected and the excised liver was subjected to evaluation of TGF-β1 mRNA expression. The liver tissue stored in liquid nitrogen was homogenized in a TRIZOL solution and then the total RNAs were extracted. The isolated RNAs were diluted to a concentration of 1 μg/μL in 0.1(v/v) % DEPC (diethyl pyrocarbonate), and then the RNA mixture [2 μg/μL each RNA+2 μL of 0.5 μg/μL oligo d(T)15+up to 15 μL of 0.1% DEPC water] was incubated using a PCR apparatus at 72° C. for 5 minutes, followed by quenching on ice. The mixture [1 μL of PCR nucleotide mix+5 μL of 5×MMLV RT bf.(Promega, M531A)+1 μL of […] M-MLV reverse] was prepared, and then subjected to elongation at 42° C. for 60 minutes, denaturation at 95° C. for 5 minutes and quenching at 8° C. to synthesize cDNAs which were stored at −20° C. until subsequent use. In order to carry out RT-PCR, the mixture [1 μL of 20 pmol each Primer+9.5 μL of Nuclease-free water] was prepared and then 2 μL of each cDNA was placed in sterile PCR tubes to which 12.5 μL of remix Taq™ (RR003A, TaKaRa) was then added, followed by mixing. PCR was carried out under the following conditions (Table 4), using Thermal Cycler (PTC-200, MJ Research). PCT products were electrophoresed and analyzed using an Image Analyzer (Vilber Lourmat). Using β-actin expression, the expression of a target gene TGF-β1 was subjected to normalization (FIG. 11).

[3] = test system: HepG2 cells; test: Free fatty acid-induced intracellular fat accumulation, Nile Red staining; assay type: cell-based, human; conditions: for free fatty acid-induced fat accumulation in hepatocytes, result in words: FIG. 10; for inhibition at 1 µM: Homo sapiens, HepG2, 0.5 mM free fatty acid, 24 hours, read-out: inhibitory effects on free fatty acid-induced fat accumulation
Method: By a combined treatment of free fatty acid and a drug, inhibitory effects of individual drugs on intracellular fat accumulation were quantified using a triglyceride staining method. The human hepatoma cell line, HepG2 cells were cultured in a minimum essential medium (MEM) containing 10(v/v) % fetal bovine serum for 48 hours. […] For the negative control group, a MEM containing 1(v/v) % bovine serum albumin was treated with 0.1(v/v) % dimethyl sulfoxide with no addition of free fatty acid. After the culture was complete, the medium was removed and the cells were washed with a phosphate buffer. […] After the staining was complete, the supernatant was discarded and replaced with a phosphate buffer, followed by measurement of fluorescence intensities under conditions of a 488 nm excitation wavelength and a 550 nm emission wavelength. Then, in order to correct a deviation according to the cell count, a phosphate buffer containing 10 μM resazurin (Sigma) dissolved therein was added to the same well. Thereafter, before and after the reaction at 37° C. for 1 hour under light-shielded conditions, fluorescence intensities were measured using a fluorometer under conditions of a 535 nm excitation wavelength and a 580 nm emission wavelength, whereby an increase in fluorescence intensity due to resorufin reduced and formed by the intracellular mitochondrial activity was measured. Using the value of a fluorescence intensity of Nile Red corrected in terms of an increase in fluorescence intensity due to the reduction of resazurin, the experimental results were expressed as a percentage for the fat accumulation increased by a treatment with free fatty acid, as compared to the negative control group.

[4] = standard diet with 0.3% drug (target 300 mg/kg/day)
[5] = standard diet with 0.01% drug (target 10 mg/kg/day)
[6] = standard diet with 0.1% drug (target 100 mg/kg/day)

| Structure (SMILES) | plasma alanine aminotransferase, result in words [1] | ALT increase inhibition (%) relative to ob/ob mouse control group [1, 4] [%] | ALT increment (%) relative to normal mouse group [1, 4] [%] | TGF-β1 expression inhibition rate (% CCl4 control group) ([2]; 100 mg/kg oral once a day) [%] | TGF-β1 expression (normalized by actin) ([2]; 100 mg/kg oral once a day) | TGF-β1 expression inhibition rate (% CCl4 control group) ([2]; 300 mg/kg oral once a day) [%] | TGF-β1 expression (normalized by actin) ([2]; 300 mg/kg oral once a day) | maximum decrement in TGF-β1 mRNA expression of the liver relative to the CCl4 control group [2] [%] | expression of TGF-β1 mRNA of the liver, result in words [2] | free fatty acid-induced fat accumulation in hepatocytes, result in words [3] | inhibition at 1 µM [3] [%] | ALT increase inhibition (%) relative to ob/ob mouse control group [1, 5] [%] | ALT increment (%) relative to normal mouse group [1, 5] [%] | ALT increase inhibition (%) relative to ob/ob mouse control group [1, 6] [%] | ALT increment (%) relative to normal mouse group [1, 6] [%] | TGF-β1 expression inhibition rate (% CCl4 control group) ([2]; 30 mg/kg oral once a day) [%] | TGF-β1 expression (normalized by actin) ([2]; 30 mg/kg oral once a day) |
| --- | --- | --- | --- | --- | --- | --- | --- | --- | --- | --- | --- | --- | --- | --- | --- | --- | --- |
| N[C@@H](CC(=O)N1CCn2c(nnc2C(F)(F)F)C1)Cc1cc(F)c(F)cc1F [sitagliptin phosphate, sitagliptin] | reduction | 15 | 869 | 41 | 1.13 ± 0.19 | −17 | 1.26 ± 0.13 | 41 | decreased expression | dose-dependent inhibition | 28.7 ± 3.2 |  |  |  |  |  |  |
| CC(C)(C)OC[C@@H]1C(=O)NCCN1C(=O)C[C@H](N)Cc1cc(F)c(F)cc1F [tartrate of Compound 1, (R)-4-[(R)-3-amino-4-(2,4,5-trifluorophenyl)-butanoyl]-3-(t-butoxymethyl)piperazin-2-one] | reduction | 27 | 757 | 128 | 0.93 ± 0.10 | 100 | 1.00 ± 0.13 | 135 | normalization | dose-dependent inhibition | 28.7 ± 3.2 | 43 | 610 | 39 | 653 | 135 | 0.92 ± 0.13 |
